# Assay results taken from patent US20090155875A1, “Methods to Enhance Carbon Monoxide Dehydrogenase Activity and Uses Thereof” (priority 2005, published 2009).
# Columns and labels:
# CODH = CODH activity by reduction of methyl viologen coupled to CO oxidation (absorption at 578 nm); type: biochemical, R. rubrum
# Method: CODH activity was determined by the reduction of methyl viologen coupled to CO oxidation and the concomitant absorption at 578 nm by UV spectrophotometry. CODH activity was measured in an anaerobic reaction mixture containing 50 mM Tris-HCl, 2 mM methyl viologen and 2 mM dithiothreitol at pH 8.7 (Maness, P. C. and Weaver, P. F. (2002) Int. J. Hydrogen Energy 27:1407-11). The cell free, CODH-enriched fraction was prepared as described (Maness, P. C. and Weaver, P. F. (2001) Appl. Microbiol. Biotechnol. 57:751-6). The supernatant was used as the source of CODH enzyme.
# Hydrogenase = Hydrogenase activity in whole cells by H2 evolution (gas chromatography); type: cell-based, R. rubrum
# Method: Hydrogenase activity was determined using whole cells by measuring H2 evolution in an anaerobic reaction mixture containing 2 mM methyl viologen, 0.1% (w/v) Triton X-100 and 50 mM potassium phosphate buffer at pH 7.0. The reaction was initiated by adding 5 mM sodium dithionite. The reaction was incubated 15 minutes at 30° C. in a shaking water bath. The reaction was terminated by addition of 0.1 ml 10% (w/v) tricholoroacetic acid. Hydrogen in the gas phase was determined by gas chromatography as described in Maness, P. C. and Weaver, P. F. (2001) Appl. Microbiol. Biotechnol. 57:751-6.
# CODH, sequence (P31896 2-639): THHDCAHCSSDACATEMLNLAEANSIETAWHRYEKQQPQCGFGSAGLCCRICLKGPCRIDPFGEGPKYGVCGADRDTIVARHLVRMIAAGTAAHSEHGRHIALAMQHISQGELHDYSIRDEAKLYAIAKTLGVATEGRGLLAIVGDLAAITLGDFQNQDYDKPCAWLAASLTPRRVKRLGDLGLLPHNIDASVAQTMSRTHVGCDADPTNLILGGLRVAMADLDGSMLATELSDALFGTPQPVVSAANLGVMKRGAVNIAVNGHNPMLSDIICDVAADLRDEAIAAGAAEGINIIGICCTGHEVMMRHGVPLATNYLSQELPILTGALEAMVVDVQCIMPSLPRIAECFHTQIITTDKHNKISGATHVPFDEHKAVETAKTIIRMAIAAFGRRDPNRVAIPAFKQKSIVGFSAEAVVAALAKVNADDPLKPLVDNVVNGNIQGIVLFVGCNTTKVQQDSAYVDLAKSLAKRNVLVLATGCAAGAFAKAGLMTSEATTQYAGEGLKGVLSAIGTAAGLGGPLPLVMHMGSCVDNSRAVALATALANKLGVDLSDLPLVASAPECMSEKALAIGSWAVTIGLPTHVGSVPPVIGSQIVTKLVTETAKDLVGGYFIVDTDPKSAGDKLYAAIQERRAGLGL
substance,measurement,setting,value
"hemoglobin: human α- and β-globin chains encoded in pHE2 plasmid; purified from E. coli and added, or expressed in the cells",CODH activity,"CODH; addition of hemoglobin (soluble, final 1.5 μM heme), untreated 17.76±2.85, p<9×10^−6",32.41±4.03 μmol methyl viologen reduction/min/ml
same,CODH activity,"CODH; expression of hemoglobin in the cells (pHE2 plasmid, IPTG induced), p<0.005",29.60±7.30 μMol methyl viologen reduction/min/ml
same,hydrogenase activity,"Hydrogenase; expression of hemoglobin in the cells, p<0.02",250.4±89.1 nMol H2/min/mg cell dry weight
same,hydrogenase activity,"Hydrogenase; first statement, printed as 'hemoglobin expression', untreated 137.6±15.0, p<2×10^−6",266.9±27.0 nMol H2/min/mg cell dry weight
